Assay results reported in patent US12723063B2, “GIPR-agonist compounds” (Eli Lilly and Company, priority 2019, dated 2026).
pKi: −log10 of the molar value. *1 amine or outer side, *2 acyl side, *3 side chain or, on linkers, in order; H or OH if unused. Where a SMILES comes first, the peptide text is derived from it. Side-chain parts run from the residue outwards. [ ]: non-standard residue; d: D form. The star is where a group is joined. C20 diacid = O=C(O)CCCCCCCCCCCCCCCCCCC(=O)*; C18 diacid = O=C(O)CCCCCCCCCCCCCCCCC(=O)*; αMePhe(2-F) = C[C@](N)(Cc1ccccc1F)C(=O)O; γGlu = O=C(O)[C@H](CCC(=O)[*:2])N[*:1]; αMeF = C[C@](N)(Cc1ccccc1)C(=O)O; 4Pal = N[C@@H](Cc1ccncc1)C(=O)O; αMeL = CC(C)C[C@](C)(N)C(=O)O; AEEA = NCCOCCOCC(=O)O; Aib = CC(C)(N)C(=O)O

Each molecule was assayed against T1, human GLP-1R (Homo sapiens, UniProt P43220) (assay: [125I]-GLP-1 binding, SPA with WGA beads, 0.1% bacitracin). Conditions: geometric mean, read-out: hGLP1R Ki.
T1 construct: expressed in transfected cells; crude membranes
Outline: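 Binding buffer was 25 mM HEPES pH 7.4 with 2.5 mM CaCl2, 1 mM MgCl2, 0.1% (w/v) bacitracin, 0.003% Tween-20 and EDTA-free protease inhibitors. Four-parameter regression gave IC50, converted to Ki (geometric mean, SEM, n independent days).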

T1 sequence (P43220 24-463): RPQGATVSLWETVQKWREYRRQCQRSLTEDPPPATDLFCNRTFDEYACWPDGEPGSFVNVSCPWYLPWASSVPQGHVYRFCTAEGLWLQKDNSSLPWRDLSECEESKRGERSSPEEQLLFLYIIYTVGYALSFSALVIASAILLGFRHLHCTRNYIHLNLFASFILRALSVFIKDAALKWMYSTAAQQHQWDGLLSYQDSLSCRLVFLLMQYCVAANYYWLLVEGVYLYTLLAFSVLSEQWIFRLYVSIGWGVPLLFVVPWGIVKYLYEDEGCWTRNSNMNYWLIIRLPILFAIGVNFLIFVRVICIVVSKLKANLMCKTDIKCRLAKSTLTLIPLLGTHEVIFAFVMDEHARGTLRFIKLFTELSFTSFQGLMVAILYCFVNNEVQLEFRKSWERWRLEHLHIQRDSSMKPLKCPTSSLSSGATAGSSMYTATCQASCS

Row | Compound | pKi
1 | CC[C@H](C)[C@H](NC(=O)[C@H](CC(C)C)NC(=O)[C@@H](NC(=O)CNC(=O)[C@H](CCC(=O)O)NC(=O)C(C)(C)NC(=O)[C@@H](N)Cc1ccc(O)cc1)[C@@H](C)O)C(=O)N[C@@H](CO)C(=O)N[C@@H](CC(=O)O)C(=O)N[C@@H](Cc1ccc(O)cc1)C(=O)N[C@@H](CO)C(=O)N[C@H](C(=O)N[C@@](C)(CC(C)C)C(=O)N[C@@H](CC(C)C)C(=O)N[C@@H](CC(=O)O)C(=O)N[C@@H](CCCCN)C(=O)N[C@@H](CCCCNC(=O)COCCOCCNC(=O)COCCOCCNC(=O)CC[C@H](NC(=O)CCCCCCCCCCCCCCCCCCC(=O)O)C(=O)O)C(=O)N[C@@H](Cc1c[nH]cn1)C(=O)N[C@@H](CCC(N)=O)C(=O)NC(C)(C)C(=O)N[C@@H](CCC(=O)O)C(=O)N[C@@H](Cc1ccccc1)C(=O)N[C@H](C(=O)N[C@@H](CCC(=O)O)C(=O)N[C@@H](Cc1ccc(O)cc1)C(=O)N[C@@H](CC(C)C)C(=O)N[C@@H](CC(C)C)C(=O)N[C@@H](CCC(=O)O)C(=O)NCC(=O)NCC(=O)N1CCC[C@H]1C(=O)N[C@@H](CO)C(=O)N[C@@H](CO)C(=O)NCC(=O)N[C@@H](C)C(=O)N1CCC[C@H]1C(=O)N1CCC[C@H]1C(=O)N1CCC[C@H]1C(=O)N[C@@H](CO)C(N)=O)C(C)C)[C@@H](C)CC [Example 73] (H-Y[Aib]EGTLISDYSI[αMeL]LDKK([AEEA-AEEA-γGlu-C20 diacid])HQ[Aib]EFVEYLLEGGPSSGAPPPS-NH2) | 6.93
2 | CC[C@H](C)[C@H](NC(=O)[C@H](CCCCN)NC(=O)[C@H](CC(=O)O)NC(=O)[C@H](CC(C)C)NC(=O)[C@](C)(CC(C)C)NC(=O)[C@@H](NC(=O)[C@H](CO)NC(=O)[C@H](Cc1ccc(O)cc1)NC(=O)[C@H](CC(=O)O)NC(=O)[C@H](CO)NC(=O)[C@@H](NC(=O)[C@H](Cc1ccccc1)NC(=O)[C@@H](NC(=O)CNC(=O)[C@H](CCC(=O)O)NC(=O)C(C)(C)NC(=O)[C@@H](N)Cc1ccc(O)cc1)[C@@H](C)O)[C@@H](C)CC)[C@@H](C)CC)C(=O)N[C@@H](Cc1c[nH]cn1)C(=O)N[C@@H](CCC(N)=O)C(=O)NC(C)(C)C(=O)N[C@@H](CC(=O)O)C(=O)N[C@@H](Cc1ccccc1)C(=O)N[C@H](C(=O)N[C@@H](CCC(=O)O)C(=O)N[C@@H](Cc1ccncc1)C(=O)N[C@@H](CCCCNC(=O)COCCOCCNC(=O)COCCOCCNC(=O)CC[C@H](NC(=O)CCCCCCCCCCCCCCCCC(=O)O)C(=O)O)C(=O)N[C@@H](CC(C)C)C(=O)N[C@@H](CCC(=O)O)C(=O)NCC(=O)NCC(=O)N1CCC[C@H]1C(=O)N[C@@H](CO)C(=O)N[C@@H](CO)C(=O)NCC(=O)N[C@@H](C)C(=O)N1CCC[C@H]1C(=O)N1CCC[C@H]1C(=O)N1CCC[C@H]1C(=O)N[C@@H](CO)C(N)=O)C(C)C [Example 110] (H-Y[Aib]EGTFISDYSI[αMeL]LDKIHQ[Aib]DFVE[4Pal]K([AEEA-AEEA-γGlu-C18 diacid])LEGGPSSGAPPPS-NH2) | < 6.04
3 | CC[C@H](C)[C@H](NC(=O)[C@H](Cc1ccccc1)NC(=O)[C@@H](NC(=O)CNC(=O)[C@H](CCC(=O)O)NC(=O)C(C)(C)NC(=O)[C@@H](N)Cc1ccc(O)cc1)[C@@H](C)O)C(=O)N[C@@H](CO)C(=O)N[C@@H](CC(=O)O)C(=O)N[C@@H](Cc1ccc(O)cc1)C(=O)N[C@@H](CO)C(=O)N[C@H](C(=O)N[C@@](C)(CC(C)C)C(=O)N[C@@H](CC(C)C)C(=O)N[C@@H](CC(=O)O)C(=O)N[C@@H](CCC(=O)O)C(=O)N[C@@H](CCCCNC(=O)COCCOCCNC(=O)COCCOCCNC(=O)CC[C@H](NC(=O)CCCCCCCCCCCCCCCCCCC(=O)O)C(=O)O)C(=O)N[C@@H](Cc1c[nH]cn1)C(=O)N[C@@H](CCC(N)=O)C(=O)NC(C)(C)C(=O)N[C@@H](CC(=O)O)C(=O)N[C@@H](Cc1ccccc1)C(=O)N[C@H](C(=O)N[C@@H](CCC(=O)O)C(=O)N[C@@H](Cc1ccncc1)C(=O)N[C@@H](CC(C)C)C(=O)N[C@@H](CC(C)C)C(=O)N[C@@H](C)C(=O)N[C@@H](C)C(=O)NCC(=O)N1CCC[C@H]1C(=O)N[C@@H](CO)C(=O)N[C@@H](CO)C(=O)NCC(=O)N[C@@H](C)C(=O)N1CCC[C@H]1C(=O)N1CCC[C@H]1C(=O)N1CCC[C@H]1C(=O)N[C@@H](CO)C(N)=O)C(C)C)[C@@H](C)CC [Example 85] | 6.66
4 | CC[C@H](C)[C@H](NC(=O)[C@H](CO)NC(=O)[C@H](Cc1ccc(O)cc1)NC(=O)[C@H](CC(=O)O)NC(=O)[C@H](CO)NC(=O)[C@@H](NC(=O)[C@](C)(Cc1ccccc1F)NC(=O)[C@@H](NC(=O)CNC(=O)[C@H](CCC(=O)O)NC(=O)C(C)(C)NC(=O)[C@@H](N)Cc1ccc(O)cc1)[C@@H](C)O)[C@@H](C)CC)C(=O)N[C@@H](C)C(=O)N[C@@H](CC(C)C)C(=O)N[C@@H](CC(=O)O)C(=O)N[C@@H](CCCCN)C(=O)N[C@H](C(=O)N[C@@H](Cc1c[nH]cn1)C(=O)N[C@@H](CCC(N)=O)C(=O)NC(C)(C)C(=O)N[C@@H](CC(=O)O)C(=O)N[C@@H](Cc1ccccc1)C(=O)N[C@H](C(=O)N[C@@H](CCC(=O)O)C(=O)N[C@@H](Cc1ccncc1)C(=O)N[C@@H](CCCCNC(=O)COCCOCCNC(=O)COCCOCCNC(=O)CC[C@H](NC(=O)CCCCCCCCCCCCCCCCCCC(=O)O)C(=O)O)C(=O)N[C@@H](CC(C)C)C(=O)N[C@@H](CCC(=O)O)C(=O)N[C@@H](C)C(=O)NCC(=O)N1CCC[C@H]1C(=O)N[C@@H](CO)C(=O)N[C@@H](CO)C(=O)NCC(=O)N[C@@H](C)C(=O)N1CCC[C@H]1C(=O)N1CCC[C@H]1C(=O)N1CCC[C@H]1C(=O)N[C@@H](CO)C(N)=O)C(C)C)[C@@H](C)CC [Example 113] (H-Y[Aib]EGT[αMePhe(2-F)]ISDYSIALDKIHQ[Aib]DFVE[4Pal]K([AEEA-AEEA-γGlu-C20 diacid])LEAGPSSGAPPPS-NH2) | < 6.04
5 | CC[C@H](C)[C@H](NC(=O)[C@H](CO)NC(=O)[C@H](Cc1ccc(O)cc1)NC(=O)[C@H](CC(=O)O)NC(=O)[C@H](CO)NC(=O)[C@@H](NC(=O)[C@H](Cc1ccccc1)NC(=O)[C@@H](NC(=O)CNC(=O)[C@H](CCC(=O)O)NC(=O)[C@@H](C)NC(=O)[C@@H](N)Cc1ccc(O)cc1)[C@@H](C)O)[C@@H](C)CC)C(=O)N[C@@H](CC(C)C)C(=O)N[C@@H](CC(C)C)C(=O)N[C@@H](CC(=O)O)C(=O)N[C@@H](CCCCN)C(=O)N[C@@H](CCCCNC(=O)COCCOCCNC(=O)COCCOCCNC(=O)CC[C@H](NC(=O)CCCCCCCCCCCCCCCCCCC(=O)O)C(=O)O)C(=O)N[C@@H](Cc1c[nH]cn1)C(=O)N[C@@H](CCC(N)=O)C(=O)N[C@@H](CCC(N)=O)C(=O)N[C@@H](CCC(=O)O)C(=O)N[C@@H](Cc1ccccc1)C(=O)N[C@H](C(=O)N[C@@H](CC(N)=O)C(=O)N[C@@H](Cc1c[nH]c2ccccc12)C(=O)N[C@@H](CC(C)C)C(=O)N[C@@H](CC(C)C)C(=O)N[C@@H](C)C(=O)N[C@@H](CCC(N)=O)C(=O)NCC(=O)N1CCC[C@H]1C(=O)N[C@@H](CO)C(=O)N[C@@H](CO)C(=O)NCC(=O)N[C@@H](C)C(=O)N1CCC[C@H]1C(=O)N1CCC[C@H]1C(=O)N1CCC[C@H]1C(=O)N[C@@H](CO)C(N)=O)C(C)C [Example 13] (H-Y[dA]EGTFISDYSILLDKK([AEEA-AEEA-γGlu-C20 diacid])HQQEFVNWLLAQGPSSGAPPPS-NH2) | < 6.67
6 | CC[C@H](C)[C@H](NC(=O)[C@H](CO)NC(=O)[C@H](Cc1ccc(O)cc1)NC(=O)[C@H](CC(=O)O)NC(=O)[C@H](CO)NC(=O)[C@@H](NC(=O)[C@](C)(Cc1ccccc1)NC(=O)[C@@H](NC(=O)CNC(=O)[C@H](CCC(=O)O)NC(=O)C(C)(C)NC(=O)[C@@H](N)Cc1ccc(O)cc1)[C@@H](C)O)[C@@H](C)CC)C(=O)N[C@@H](C)C(=O)N[C@@H](CC(C)C)C(=O)N[C@@H](CC(=O)O)C(=O)N[C@@H](CCCCN)C(=O)N[C@@H](CCCCNC(=O)COCCOCCNC(=O)COCCOCCNC(=O)CC[C@H](NC(=O)CCCCCCCCCCCCCCCCCCC(=O)O)C(=O)O)C(=O)N[C@@H](Cc1c[nH]cn1)C(=O)N[C@@H](CCC(N)=O)C(=O)NC(C)(C)C(=O)N[C@@H](CCC(=O)O)C(=O)N[C@@H](Cc1ccccc1)C(=O)N[C@H](C(=O)N[C@@H](CC(N)=O)C(=O)N[C@@H](Cc1c[nH]c2ccccc12)C(=O)N[C@@H](CC(C)C)C(=O)N[C@@H](CC(C)C)C(=O)N[C@@H](C)C(=O)NCC(=O)NCC(=O)N1CCC[C@H]1C(=O)N[C@@H](CO)C(=O)N[C@@H](CO)C(=O)NCC(=O)N[C@@H](C)C(=O)N1CCC[C@H]1C(=O)N1CCC[C@H]1C(=O)N1CCC[C@H]1C(=O)N[C@@H](CO)C(N)=O)C(C)C [Example 25] (H-Y[Aib]EGT[αMeF]ISDYSIALDKK([AEEA-AEEA-γGlu-C20 diacid])HQ[Aib]EFVNWLLAGGPSSGAPPPS-NH2) | 7.80
7 | CC[C@H](C)[C@H](NC(=O)[C@H](CO)NC(=O)[C@H](Cc1ccc(O)cc1)NC(=O)[C@H](CC(=O)O)NC(=O)[C@H](CO)NC(=O)[C@@H](NC(=O)[C@](C)(Cc1ccccc1F)NC(=O)[C@@H](NC(=O)CNC(=O)[C@H](CCC(=O)O)NC(=O)C(C)(C)NC(=O)[C@@H](N)Cc1ccc(O)cc1)[C@@H](C)O)[C@@H](C)CC)C(=O)N[C@@H](CC(C)C)C(=O)N[C@@H](CC(C)C)C(=O)N[C@@H](CC(=O)O)C(=O)N[C@@H](CCCCN)C(=O)N[C@H](C(=O)N[C@@H](Cc1c[nH]cn1)C(=O)N[C@@H](CCC(N)=O)C(=O)NC(C)(C)C(=O)N[C@@H](CC(=O)O)C(=O)N[C@@H](Cc1ccccc1)C(=O)N[C@H](C(=O)N[C@@H](CCC(=O)O)C(=O)N[C@@H](Cc1ccncc1)C(=O)N[C@@H](CCCCNC(=O)COCCOCCNC(=O)COCCOCCNC(=O)CC[C@H](NC(=O)CCCCCCCCCCCCCCCCCCC(=O)O)C(=O)O)C(=O)N[C@@H](CC(C)C)C(=O)N[C@@H](CCC(=O)O)C(=O)NCC(=O)NCC(=O)N1CCC[C@H]1C(=O)N[C@@H](CO)C(=O)N[C@@H](CO)C(=O)NCC(=O)N[C@@H](C)C(=O)N1CCC[C@H]1C(=O)N1CCC[C@H]1C(=O)N1CCC[C@H]1C(=O)N[C@@H](CO)C(N)=O)C(C)C)[C@@H](C)CC [Example 119] (H-Y[Aib]EGT[αMePhe(2-F)]ISDYSILLDKIHQ[Aib]DFVE[4Pal]K([AEEA-AEEA-γGlu-C20 diacid])LEGGPSSGAPPPS-NH2) | 6.14
